Reference: patent US6610677B2, “Pyrazole compounds useful as protein kinase inhibitors” (Vertex Pharmaceuticals Incorporated, priority 2000, dated 2003)

Legend:
Aurora-2 = target: T1, Aurora-2 (Homo sapiens, UniProt O14965); assay: Ki determination for the inhibition of Aurora-2 (coupled enzyme assay); type: biochemical; details: 70 nM Aurora-2, peptide LRRASLG, 30° C
T1 sequence (O14965 1-403): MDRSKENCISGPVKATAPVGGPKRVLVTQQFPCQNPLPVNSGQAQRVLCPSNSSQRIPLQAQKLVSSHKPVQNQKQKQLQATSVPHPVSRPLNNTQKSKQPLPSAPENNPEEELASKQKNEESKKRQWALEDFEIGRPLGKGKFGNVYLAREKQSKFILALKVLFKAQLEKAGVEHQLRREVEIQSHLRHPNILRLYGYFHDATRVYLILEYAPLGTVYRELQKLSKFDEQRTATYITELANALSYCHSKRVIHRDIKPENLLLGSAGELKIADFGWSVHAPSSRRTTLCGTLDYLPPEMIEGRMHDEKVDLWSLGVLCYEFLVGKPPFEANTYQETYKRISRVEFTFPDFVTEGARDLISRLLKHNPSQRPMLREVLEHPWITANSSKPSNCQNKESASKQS
Outline: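 Ki came from reaction rates plotted against inhibitor concentration, with rates taken as A340 decrease over 5 min at 30° C. Enzyme (70 nM final) was added after 10 min compound preincubation; stock buffer held […], 800 μM LRRASLG, PK/LDH coupling, pH 7.5.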

GSK-3β (AA 1-420) = target: T2, GSK-3β (AA 1-420) (Homo sapiens, UniProt P49841); assay: Ki determination for the inhibition of GSK-3 (coupled enzyme system); type: biochemical; details: 20 μM ATP, 300 μM peptide, 20 nM GSK-3β, 30° C
T2 construct: GSK-3β (AA 1-420)
Outline: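 Ki values come from reaction rates over 10 min at 30 °C as a function of inhibitor concentration (12-point titration, 0.002–30 μM, 10 min preincubation). GSK-3β (AA 1-420, 20 nM) phosphorylated 300 μM primed peptide with 20 μM ATP; ADP formation followed by coupled NADH oxidation, pH 7.5.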

human Src kinase = target: T3, human Src kinase (Homo sapiens, UniProt P12931); assay: SRC inhibition assay (radioactivity-based or spectrophotometric assay); type: biochemical; details: assay A or B not specified; read-out: Ki value on SRC
T3 construct: full length recombinant human Src kinase; purchased Upstate Biotechnology 14-117; host or cells: baculo viral cells (baculovirus expression system)
Experimental: The compounds were evaluated as inhibitors of human Src kinase using either a radioactivity-based assay or spectrophotometric assay. The compounds were assayed as inhibitors of full length recombinant human Src kinase (from Upstate Biotechnology, cat. no. 14-117) expressed and purified from baculo viral cells. […] P-0275). […] In a typical assay, all the reaction components with the exception of ATP were pre-mixed and aliquoted into assay plate wells. Inhibitors dissolved in DMSO were added to the wells to give a final DMSO concentration of 2.5%. The assay plate was incubated at 30° C. for 10 min before initiating the reaction with ^33P-ATP. After 20 min of reaction, the reactions were quenched with 150 μl of 10% trichloroacetic acid (TCA) containing 20 mM Na3PO4. The quenched samples were then transferred to a 96-well filter plate (Whatman, UNI-Filter GF/F Glass Fiber Filter, cat no. 7700-3310) installed on a filter plate vacuum manifold. Filter plates were washed four times with 10% TCA containing 20 mM Na3PO4 and then 4 times with methanol. 200 μl of scintillation fluid was then added to each well. The plates were sealed and the amount of radioactivity associated with the filters was quantified on a TopCount scintillation counter. The radioactivity incorporated was plotted as a function of the inhibitor concentration. The data was fitted to a competitive inhibition kinetics model to get the Ki for the compound. The ADP produced from ATP by the human recombinant Src kinase-catalyzed phosphorylation of poly Glu-Tyr substrate was quanitified using a coupled enzyme assay (Fox et al (1998) Protein Sci 7, 2249). In this assay one molecule of NADH is oxidised to NAD for every molecule of ADP produced in the kinase reaction. The disappearance of NADH can be conveniently followed at 340 nm. […] In a typical assay, all the reaction components with the exception of ATP were pre-mixed and aliquoted into assay plate wells. Inhibitors dissolved in DMSO were added to the wells to give a final DMSO concentration of 2.5%. […] The absorbance change at 340 nm with time, the rate of the reaction, was monitored on a molecular devices plate reader. The data of rate as a function of the inhibitor concentration was fitted to compettive inhibition kinetics model to get the Ki for the compound.

activated ERK2 = activated ERK2 (Homo sapiens, UniProt P28482); assay: ERK inhibition assay (spectrophotometric coupled-enzyme assay); type: biochemical; details: 10 nM activated ERK2, 65 μM ATP, 200 μM erktide; read-out: Ki value for ERK-2
Experimental: Compounds were assayed for the inhibition of ERK2 by a spectrophotometric coupled-enzyme assay (Fox et al (1998) Protein Sci 7, 2249). In this assay, a fixed concentration of activated ERK2 (10 nM) was incubated with various concentrations of the compound in DMSO (2.5%) for 10 min. at 30° C. in 0.1 M HEPES buffer, pH 7.5, containing 10 mM MgCl2, 2.5 mM phosphoenolpyruvate, 200 μM NADH, 150 μg/mL pyruvate kinase, 50 μg/mL lactate dehydrogenase, and 200 μM erktide peptide. The reaction was initiated by the addition of 65 μM ATP. The rate of decrease of absorbance at […] was monitored. The IC50 was evaluated from the rate data as a function of inhibitor concentration.

Chain of activated ERK2 (P28482 whole entry): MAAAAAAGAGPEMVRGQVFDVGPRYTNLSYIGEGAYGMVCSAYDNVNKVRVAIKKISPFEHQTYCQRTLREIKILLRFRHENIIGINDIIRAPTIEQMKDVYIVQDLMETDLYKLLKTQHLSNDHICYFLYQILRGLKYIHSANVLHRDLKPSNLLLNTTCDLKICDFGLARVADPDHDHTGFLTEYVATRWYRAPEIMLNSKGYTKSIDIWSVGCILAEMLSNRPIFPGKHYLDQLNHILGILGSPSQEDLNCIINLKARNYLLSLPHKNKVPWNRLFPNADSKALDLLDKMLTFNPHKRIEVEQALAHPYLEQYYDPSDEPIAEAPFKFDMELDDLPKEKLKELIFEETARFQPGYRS
T2 sequence (P49841 whole entry, the tested form may be a part): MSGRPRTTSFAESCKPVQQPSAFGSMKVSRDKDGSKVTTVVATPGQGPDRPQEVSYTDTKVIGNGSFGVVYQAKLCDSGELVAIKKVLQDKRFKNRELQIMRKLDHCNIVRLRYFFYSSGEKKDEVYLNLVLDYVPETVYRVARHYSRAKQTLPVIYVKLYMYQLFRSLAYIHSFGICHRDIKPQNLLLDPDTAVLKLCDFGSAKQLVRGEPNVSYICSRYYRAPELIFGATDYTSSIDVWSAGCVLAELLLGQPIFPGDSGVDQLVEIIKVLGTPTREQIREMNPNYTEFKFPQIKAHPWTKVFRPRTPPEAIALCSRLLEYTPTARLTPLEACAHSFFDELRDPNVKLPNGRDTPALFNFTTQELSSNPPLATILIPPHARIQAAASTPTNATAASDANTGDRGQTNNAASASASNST
T3 sequence (P12931 whole entry): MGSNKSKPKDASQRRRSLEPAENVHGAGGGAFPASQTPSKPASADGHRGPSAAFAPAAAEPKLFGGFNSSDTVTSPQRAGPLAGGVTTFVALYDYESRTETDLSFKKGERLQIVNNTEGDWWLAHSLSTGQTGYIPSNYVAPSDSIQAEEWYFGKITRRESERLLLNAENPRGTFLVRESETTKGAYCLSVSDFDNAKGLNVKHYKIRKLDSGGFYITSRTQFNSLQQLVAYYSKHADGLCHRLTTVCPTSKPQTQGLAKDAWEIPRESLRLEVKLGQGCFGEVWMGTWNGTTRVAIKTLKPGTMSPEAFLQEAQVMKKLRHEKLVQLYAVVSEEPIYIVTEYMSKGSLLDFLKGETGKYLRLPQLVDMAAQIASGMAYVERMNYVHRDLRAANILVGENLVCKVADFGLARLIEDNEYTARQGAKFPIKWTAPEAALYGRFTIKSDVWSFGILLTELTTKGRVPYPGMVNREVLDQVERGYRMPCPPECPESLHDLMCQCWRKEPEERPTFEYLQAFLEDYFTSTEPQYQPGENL

| Compound | melting point [°C] | Ki (Aurora-2) [nM] | Ki (GSK-3β (AA 1-420)) [nM] | Ki (human Src kinase) [nM] | Ki (activated ERK2) [nM] |
| --- | --- | --- | --- | --- | --- |
| C#Cc1cccc(-c2nc(Nc3cc(C)n[nH]3)c3ccccc3n2)c1 [III-49, [2-(3-Ethynylphenyl)-quinazolin-4-yl]-(5-methyl-2H-pyrazol-3-yl)-amine] | 204 to 207 | < 100 | < 100 | < 100 |  |
| c1ccc(-c2nc(Nc3cc(C4CCCC4)n[nH]3)c3ccccc3n2)cc1 [III-70, (5-Cyclopentyl-2H-pyrazol-3-yl)-(2-phenyl-quinazolin-4-yl)-amine] | 240 to 241 | < 100 | < 100 | < 100 |  |
| Cc1cc(Nc2nc(-c3ccc(Cl)c(Cl)c3)nc3ccccc23)[nH]n1 [III-33, [2-(3,4-Dichlorophenyl)-quinazolin-4-yl]-(5-methyl-2H-pyrazol-3-yl)-amine] | 274 | < 100 | < 100 | < 100 |  |
| Cc1cc(Nc2nc(-c3cccc(I)c3)nc3ccccc23)[nH]n1 [III-38, [2-(3-Iodophenyl)-quinazolin-4-yl]-(5-methyl-2H-pyrazol-3-yl)-amine] | 234 to 235 | < 100 | < 100 | < 100 |  |
| COc1cccc(-c2nc(Nc3cc(C)n[nH]3)c3ccccc3n2)c1 [III-45, [2-(3-Methoxyphenyl)-quinazolin-4-yl]-(5-methyl-2H-pyrazol-3-yl)-amine] | 226 | < 100 | < 100 | < 100 |  |
| CCSc1ccc(-c2nc(Nc3cc(C)n[nH]3)c3ccccc3n2)cc1 [III-39, [2-(4-Ethylsulfanylphenyl)-quinazolin-4-yl]-(5-methyl-2H-pyrazol-3-yl)-amine] | 229 to 231 | < 100 | < 100 | < 100 |  |
| CCCc1cc(Nc2nc(-c3ccccc3)nc3ccccc23)[nH]n1 [III-66, (2-Phenyl-quinazolin-4-yl)-(5-propyl-2H-pyrazol-3-yl)-amine] | 204 to 205 | < 100 | < 100 | < 100 |  |
| c1ccc(-c2nc(Nc3cc(C4CC4)n[nH]3)c3ccccc3n2)cc1 [III-40, (5-Cyclopropyl-2H-pyrazol-3-yl)-(2-phenyl-quinazolin-4-yl)-amine] | 218 to 219 | < 100 | < 100 | < 100 | 1000 to 12000 |
| Cc1cc(Nc2nc(-c3ccc(Br)cc3)nc3ccccc23)[nH]n1 [III-34, [2-(4-Bromophenyl)-quinazolin-4-yl]-(5-methyl-2H-pyrazol-3-yl)-amine] | 262 to 265 | < 100 | < 100 | < 100 |  |
| Cc1cc(Nc2nc(-c3ccc(Cl)cc3)nc3ccccc23)[nH]n1 [III-35, [2-(4-Chlorophenyl)-quinazolin-4-yl]-(5-methyl-2H-pyrazol-3-yl)-amine] | > 300 | < 100 | < 100 | < 100 |  |
| Cc1cc(Nc2nc(-c3ccc(C#N)cc3)nc3ccccc23)[nH]n1 [III-37, [2-(4-Cyanophenyl)-quinazolin-4-yl]-(5-methyl-2H-pyrazol-3-yl)-amine] | 263 | < 100 | < 100 | < 100 |  |
| CCc1cc(Nc2nc(-c3ccccc3)nc3ccccc23)[nH]n1 [III-65] | 221 to 222 | < 100 | < 100 | < 100 |  |
| c1ccc(-c2nc(Nc3ccn[nH]3)c3ccccc3n2)cc1 [III-63, (2-Phenyl-quinazolin-4-yl)-(2H-pyrazol-3-yl)-amine] | 247 to 249 | < 100 | < 100 |  | 1000 to 12000 |

Now from value to compound:

| melting point [°C] | Ki (Aurora-2) [nM] | Ki (GSK-3β (AA 1-420)) [nM] | Ki (human Src kinase) [nM] | Ki (activated ERK2) [nM] | Compound |
| --- | --- | --- | --- | --- | --- |
| 131 | < 100 | 100 to 1000 |  | < 1000 | OC1(c2ccccc2)CCN(c2nc(Nc3cc(C4CC4)n[nH]3)c3ccccc3n2)CC1 [III-115, (5-Cyclopropyl-2H-pyrazol-3-yl)-[2-(4-hydroxy-4-phenylpiperidin-1-yl)-quinazolin-4-yl]-amine] |
| 142 | < 100 | < 100 |  | < 1000 | OCC1CCN(c2nc(Nc3cc(C4CC4)n[nH]3)c3ccccc3n2)CC1 [III-120, (5-Cyclopropyl-2H-pyrazol-3-yl)-[2-(4-hydroxymethylpiperidin-1-yl)-quinazolin-4-yl]-amine] |
| 294 | < 100 | < 100 |  | 1000 to 12000 | Cc1cc(Nc2nc(N3CCCCC3)nc3ccccc23)[nH]n1 [III-108, (5-Methyl-2H-pyrazol-3-yl)-(2-piperidin-1-yl-quinazolin-4-yl)-amine] |
|  | < 100 | < 100 |  | < 1000 | CC1CCN(c2nc(Nc3cc(C4CC4)n[nH]3)c3ccccc3n2)CC1 [III-111, (5-Cyclopropyl-2H-pyrazol-3-yl)-[2-(4-methylpiperidin-1-yl)-quinazolin-4-yl]-amine] |
| 269 | < 100 | < 100 |  | < 1000 | Cc1cc(Nc2nc(N3CCCCCC3)nc3ccccc23)[nH]n1 [III-109] |
| 182 to 184 | < 100 | < 100 |  | < 1000 | c1ccc2c(c1)CCN(c1nc(Nc3cc(C4CC4)n[nH]3)c3ccccc3n1)C2 [III-118, (5-Cyclopropyl-2H-pyrazol-3-yl)-[2-(3,4-dihydro-1H-isoquinolin-2-yl)-quinazolin-4-yl]-amine] |
| 199 to 200 | < 100 | < 100 |  | < 1000 | c1ccc2c(Nc3cc(C4CC4)n[nH]3)nc(N3CCCCCC3)nc2c1 [III-117] |
